Data published in patent US20250262201A1, “COMPOUNDS AND METHODS USEFUL FOR STABILIZING PHENYLALANINE HYDROXYLASE MUTATIONS” (Agios Pharmaceuticals, Inc., priority 2022, published 2025).

Target: T1, human PAH with the R408W mutation (Homo sapiens, UniProt P00439, R408W)
T1 construct: expressed in transfected cells
T1 sequence (P00439 1-452 R408W): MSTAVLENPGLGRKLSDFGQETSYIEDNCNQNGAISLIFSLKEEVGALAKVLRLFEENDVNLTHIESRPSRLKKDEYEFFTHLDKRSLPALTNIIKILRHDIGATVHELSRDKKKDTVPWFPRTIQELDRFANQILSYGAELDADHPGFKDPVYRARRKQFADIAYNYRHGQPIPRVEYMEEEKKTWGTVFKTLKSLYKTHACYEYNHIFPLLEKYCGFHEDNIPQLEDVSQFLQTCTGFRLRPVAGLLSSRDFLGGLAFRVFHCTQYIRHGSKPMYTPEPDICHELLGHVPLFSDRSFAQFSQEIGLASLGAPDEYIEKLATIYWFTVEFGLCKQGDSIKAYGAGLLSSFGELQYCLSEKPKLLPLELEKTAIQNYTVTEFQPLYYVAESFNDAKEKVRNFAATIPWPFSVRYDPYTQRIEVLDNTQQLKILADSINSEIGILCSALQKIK
Test: Cell Based Phenylalanine Flux Assay
Conditions: A375 cells expressing human R408W PAH; 24 hrs compound incubation; 13C-Tyrosine by LC-MS; average where tested multiple times; read-out: AC50

Q: How did the AC50 turn out when `O=C(c1nsc2ccccc12)N1CCc2[nH]cnc2[C@H]1c1cc2ccccc2cn1` [Example 358, (R)-benzo[d]isothiazol-3-yl(4-(isoquinolin-3-yl)-6,7-dihydro-1H-imidazo[4,5-c]pyridin-5(4H)-yl)methanone] was run?
A: < 500 nM

Q: For `O=C(c1n[nH]c2ccccc12)N1CCc2[nH]cnc2[C@H]1c1cc2ccccc2cn1` [Example 359, (3a,7a-dihydro-1H-indazol-3-yl)((R)-4-(isoquinolin-3-yl)-6,7-dihydro-1H-imidazo[4,5-c]pyridin-5(4H)-yl)methanone], which AC50 is on record?
A: < 500 nM

Q: `Cn1nc(C(=O)N2CCc3[nH]cnc3[C@H]2c2cc3ccccc3cn2)c2ccccc21` [Example 360, (R)-(4-(isoquinolin-3-yl)-6,7-dihydro-1H-imidazo[4,5-c]pyridin-5(4H)-yl)(1-methyl-1H-indazol-3-yl)methanone] was tested. Which AC50 did it give?
A: < 500 nM

Q: `Cc1nnc(C(=O)N2CCc3[nH]cnc3[C@H]2c2cc3ccccc3cn2)s1` [Example 361, (R)-(4-(isoquinolin-3-yl)-6,7-dihydro-1H-imidazo[4,5-c]pyridin-5(4H)-yl)(5-methyl-1,3,4-thiadiazol-2-yl)methanone] was tested. Which AC50 did it give?
A: 500 to 1000 nM

Q: `O=C(c1ccn2ncccc12)N1CCc2[nH]cnc2[C@H]1c1cc2ccccc2cn1` [Example 362, (R)-(4-(isoquinolin-3-yl)-6,7-dihydro-1H-imidazo[4,5-c]pyridin-5(4H)-yl)(pyrrolo[1,2-b]pyridazin-5-yl)methanone] was tested. Which AC50 did it give?
A: < 500 nM

Q: Which AC50 does the source give for `CN(C)C(=O)c1nnc(N2CCc3[nH]cnc3[C@H]2c2cc3ccccc3cn2)o1` [Example 363, (R)-5-(4-(isoquinolin-3-yl)-6,7-dihydro-1H-imidazo[4,5-c]pyridin-5(4H)-yl)-N,N-dimethyl-1,3,4-oxadiazole-2-carboxamide] here?
A: 500 to 1000 nM

Q: `O=C(c1nnc(-c2ccccc2)s1)N1CCc2[nH]cnc2[C@H]1c1cc2ccccc2cn1` [Example 364, (R)-(4-(isoquinolin-3-yl)-6,7-dihydro-1H-imidazo[4,5-c]pyridin-5(4H)-yl)(5-phenyl-1,3,4-thiadiazol-2-yl)methanone] was tested. Which AC50 did it give?
A: < 500 nM

Q: How did the AC50 turn out when `c1ccc(-c2nnc(N3CCc4[nH]cnc4[C@H]3c3cc4ccccc4cn3)o2)nc1` [Example 365, (R)-2-(4-(isoquinolin-3-yl)-6,7-dihydro-1H-imidazo[4,5-c]pyridin-5(4H)-yl)-5-(pyridin-2-yl)-1,3,4-oxadiazole] was run?
A: 500 to 1000 nM

Q: How did the AC50 turn out when `CN(C)c1nnc(C(=O)N2CCc3[nH]cnc3[C@H]2c2cc3ccccc3cn2)o1` [Example 366, (R)-(5-(dimethylamino)-1,3,4-oxadiazol-2-yl)(4-(isoquinolin-3-yl)-6,7-dihydro-1H-imidazo[4,5-c]pyridin-5(4H)-yl)methanone] was run?
A: < 500 nM

Q: Which AC50 does the source give for `CN(C)c1nnc(C(=O)N2CCc3[nH]cnc3[C@@H]2c2cc3ccccc3cn2)o1` [Example 367, (S)-(5-(dimethylamino)-1,3,4-oxadiazol-2-yl)(4-(isoquinolin-3-yl)-6,7-dihydro-1H-imidazo[4,5-c]pyridin-5(4H)-yl)methanone] here?
A: > 5000 nM

Q: For `O=C(Cc1nc(C(F)(F)F)cs1)N1CCc2[nH]cnc2[C@H]1c1cc2ccccc2cn1` [Example 368, (R)-1-(4-(isoquinolin-3-yl)-6,7-dihydro-1H-imidazo[4,5-c]pyridin-5(4H)-yl)-2-(4-(trifluoromethyl)thiazol-2-yl)ethanone], which AC50 is on record?
A: < 500 nM

Q: `O=C(Cn1cncn1)N1CCc2[nH]cnc2[C@H]1c1cc2ccccc2cn1` [Example 369, (R)-1-(4-(isoquinolin-3-yl)-6,7-dihydro-1H-imidazo[4,5-c]pyridin-5(4H)-yl)-2-(1H-1,2,4-triazol-1-yl)ethanone] was tested. Which AC50 did it give?
A: 500 to 1000 nM

Q: With `O=C(c1nnc(NC2CC2)o1)N1CCc2[nH]cnc2[C@H]1c1cc2ccccc2cn1` [Example 370, (R)-(5-(cyclopropylamino)-1,3,4-oxadiazol-2-yl)(4-(isoquinolin-3-yl)-6,7-dihydro-1H-imidazo[4,5-c]pyridin-5(4H)-yl)methanone] as the compound, how does the AC50 read?
A: 500 to 1000 nM
